This is an account of results in the Biogen ADME set (Fang et al. 2023).

For this data set the following is noted: for aqueous solubility: pH 6.8.

In brackets after ≈: the same amount, converted by molar mass.

Consider `Cc1nccc(-c2cn(Cc3ccccc3)c3cnccc23)n1`, for which the MDR1-MDCK efflux ratio is 0.675; the fraction unbound, human plasma is 0.133; the fraction unbound, rat plasma was 0.161; the intrinsic clearance, human liver microsomes turned out to be 51.4 mL/min/kg. Besides, the intrinsic clearance, rat liver microsomes was 2130 mL/min/kg and the aqueous solubility – broadly, the concentration that dissolves in the medium under given conditions – worked out at 33.7 µg/mL (≈ 112 µM).

On to `COc1cc(C#N)ccc1Cn1ccnc1C(C)C`, for which the MDR1-MDCK efflux ratio was determined as 2.82; the intrinsic clearance, human liver microsomes was found to be 17.3 mL/min/kg; the intrinsic clearance, rat liver microsomes turned out to be 166 mL/min/kg.

As for `COc1ccc(Cc2cccc(C3CCN(C(=O)C4CCCC4)CC3)n2)cc1`, the MDR1-MDCK efflux ratio stood at 0.66; the intrinsic clearance, human liver microsomes amounted to 114 mL/min/kg; the intrinsic clearance, rat liver microsomes came out at 883 mL/min/kg; the aqueous solubility amounted to 25.8 µg/mL (≈ 68.2 µM).

In the case of `O=C(c1ccccn1)N1CCCC(c2cccc(-c3cccc(Cl)c3)n2)C1` (configuration not stated), the MDR1-MDCK efflux ratio came to 0.791; the intrinsic clearance, human liver microsomes is 164 mL/min/kg; the intrinsic clearance, rat liver microsomes stood at 1300 mL/min/kg; the aqueous solubility stood at 29.9 µg/mL (≈ 79.3 µM).

For the compound `O=S1(=O)CCN(C2CCN(CC(F)(F)F)CC2)CC1`, the MDR1-MDCK efflux ratio amounted to 0.765; the intrinsic clearance, human liver microsomes was not above 4.74 mL/min/kg; the intrinsic clearance, rat liver microsomes was determined as 20.1 mL/min/kg.

As for `CNC(=O)c1ccc2c(c1)NC(=O)/C2=C(\Nc1cccc(CN(C)C)c1)c1ccccc1`, the aqueous solubility turned out to be 8.39 µg/mL (≈ 19.7 µM).

For `CN1CCc2ccc(C(=O)NCCC(=O)Nc3cccnc3)cc21`, the MDR1-MDCK efflux ratio worked out at 43.4; the intrinsic clearance, human liver microsomes worked out at 6.19 mL/min/kg; the intrinsic clearance, rat liver microsomes worked out at 86.6 mL/min/kg.

As for `Cn1cc(CN2CCc3nc4ccccc4c(=O)n3CC2)cn1`, the MDR1-MDCK efflux ratio is 2.78; the intrinsic clearance, human liver microsomes is not above 4.74 mL/min/kg; the intrinsic clearance, rat liver microsomes turned out to be 19.9 mL/min/kg.

Turning to `Cc1ccc(=O)n(CCOc2ccc(Cl)c(F)c2)n1`, the MDR1-MDCK efflux ratio was 0.684; the intrinsic clearance, human liver microsomes came to 71.2 mL/min/kg; the intrinsic clearance, rat liver microsomes worked out at 631 mL/min/kg.

Consider `CNC(=O)C1(Cc2ccc(-c3cccnc3)cc2)CCN(Cc2ccc(F)cc2)C1` (configuration not stated), for which the MDR1-MDCK efflux ratio amounted to 1.53; the fraction unbound, human plasma was determined as 0.105; the fraction unbound, rat plasma was determined as 0.083; the intrinsic clearance, human liver microsomes was 228 mL/min/kg. For the same compound, the intrinsic clearance, rat liver microsomes is 756 mL/min/kg.

The compound `CN(C)c1ccnc(C(=O)Nc2ccnn2-c2ccc(C#N)cc2)c1` gave an intrinsic clearance, human liver microsomes of 75.2 mL/min/kg and an intrinsic clearance, rat liver microsomes of 446 mL/min/kg.

`CCc1cc(NCc2cccc(OCCOC)c2)ncn1`: the MDR1-MDCK efflux ratio came to 0.827; the intrinsic clearance, human liver microsomes came to 9.28 mL/min/kg; the intrinsic clearance, rat liver microsomes was 148 mL/min/kg; the aqueous solubility was determined as 49.1 µg/mL (≈ 171 µM).

Turning to `Cn1cnnc1CCn1ccnc1-c1cc2ccccc2s1`, the MDR1-MDCK efflux ratio came to 134; the intrinsic clearance, human liver microsomes was not above 4.74 mL/min/kg; the intrinsic clearance, rat liver microsomes worked out at 25.3 mL/min/kg; the aqueous solubility stood at 33 µg/mL (≈ 106 µM).

In the case of `Cc1cc(C)c(CC(=O)N2CC(CO)C2)c(C)c1`, the MDR1-MDCK efflux ratio is 1.72; the intrinsic clearance, human liver microsomes was determined as 4.99 mL/min/kg; the intrinsic clearance, rat liver microsomes is 15.6 mL/min/kg; the aqueous solubility was found to be 46.3 µg/mL (≈ 187 µM).

Regarding `O=C(CN1CCC(c2ccccc2)CC1)N1CCNC1=O`, the MDR1-MDCK efflux ratio is 1.06; the intrinsic clearance, human liver microsomes is not above 4.74 mL/min/kg; the intrinsic clearance, rat liver microsomes was 65.2 mL/min/kg; the aqueous solubility is 49.1 µg/mL (≈ 171 µM).

Take `CCOc1cc(-c2nnc(NC(=O)c3cccc(C(F)(F)F)c3)o2)cc(OCC)c1OCC`: the intrinsic clearance, human liver microsomes was 7.61 mL/min/kg and the intrinsic clearance, rat liver microsomes is 17.5 mL/min/kg.

On to `COc1ccccc1CNc1n[nH]c2nc([C@H]3CCCN(CC(=O)N4CCCC4)C3)ccc12`, for which the MDR1-MDCK efflux ratio was found to be 43.9; the intrinsic clearance, human liver microsomes is 22.9 mL/min/kg; the intrinsic clearance, rat liver microsomes came to 422 mL/min/kg; the aqueous solubility was determined as 54.9 µg/mL (≈ 122 µM).

With `Cn1cnnc1-c1cccc(NS(=O)(=O)c2ccc3c(c2)OCCCO3)c1`, the MDR1-MDCK efflux ratio is 79.6; the intrinsic clearance, human liver microsomes is 56.6 mL/min/kg; the intrinsic clearance, rat liver microsomes amounted to 180 mL/min/kg.

Turning to `O=c1n(Cc2ccccn2)nc2n1-c1cc(Cl)ccc1C1=NCCN12`, the intrinsic clearance, human liver microsomes is not above 4.74 mL/min/kg and the intrinsic clearance, rat liver microsomes turned out to be 47.9 mL/min/kg.

`CCn1cc(C(=O)O)c(=O)c2c(N)c(F)c(NC3CCCCC3)cc21`: the fraction unbound, human plasma was found to be 0.0268; the fraction unbound, rat plasma worked out at 0.0267; the intrinsic clearance, human liver microsomes was 8.72 mL/min/kg; the intrinsic clearance, rat liver microsomes amounted to 112 mL/min/kg.

The compound `O=C(Nc1cc[nH]n1)c1ccc2c(c1)[nH]c(=O)n2C1CCCC1` registered an intrinsic clearance, human liver microsomes of 18.1 mL/min/kg and an intrinsic clearance, rat liver microsomes of 53.5 mL/min/kg.

With `Cc1ccc(S(=O)(=O)N2CCC(c3nnc(-c4cccnc4)o3)C2)cc1` (configuration not stated), the MDR1-MDCK efflux ratio turned out to be 2.87; the intrinsic clearance, human liver microsomes is 41.7 mL/min/kg; the intrinsic clearance, rat liver microsomes came to 591 mL/min/kg.

Consider `Cc1c(NC(=O)c2cc(C(N)=O)nc3cc(F)ccc23)c(C(F)(F)F)nn1Cc1ccc(C#N)cc1`, for which the MDR1-MDCK efflux ratio is 82.1 and the aqueous solubility was found to be 0.18 µg/mL (≈ 0.363 µM).

Take `Cc1ccc(NS(C)(=O)=O)c(C(=O)N(C)c2ccc3ccccc3c2)c1`: the MDR1-MDCK efflux ratio amounted to 1.8; the intrinsic clearance, human liver microsomes worked out at 12.4 mL/min/kg; the intrinsic clearance, rat liver microsomes stood at 1100 mL/min/kg; the aqueous solubility turned out to be 54.4 µg/mL (≈ 148 µM).

Consider `C=CCNc1ncc(-c2cnccn2)c(C2CC2)n1`, for which the MDR1-MDCK efflux ratio came out at 0.531; the intrinsic clearance, human liver microsomes turned out to be 13 mL/min/kg; the intrinsic clearance, rat liver microsomes is 734 mL/min/kg.

As for `CC1CCN(C(=O)CCn2ccc3ccncc32)CC1`, the MDR1-MDCK efflux ratio was found to be 1.98; the intrinsic clearance, human liver microsomes was 119 mL/min/kg; the intrinsic clearance, rat liver microsomes was 1960 mL/min/kg.

As for `CCCCNC(=O)c1cccc2ncccc12`, the MDR1-MDCK efflux ratio was 0.631; the intrinsic clearance, human liver microsomes was not above 4.74 mL/min/kg; the intrinsic clearance, rat liver microsomes worked out at 28 mL/min/kg; the aqueous solubility is 29.3 µg/mL (≈ 128 µM).

For `CCCC(=O)NCC(=O)Nc1cnc(N2CCN(C)CC2)nc1`, the MDR1-MDCK efflux ratio was found to be 10.9; the intrinsic clearance, human liver microsomes is not above 4.74 mL/min/kg; the intrinsic clearance, rat liver microsomes is not above 10.7 mL/min/kg; the aqueous solubility was 51.2 µg/mL (≈ 160 µM).

In the case of `Cc1cc(C(=O)Nc2nnc3n2CCCC3)n(C)n1`, the MDR1-MDCK efflux ratio worked out at 1.44; the intrinsic clearance, human liver microsomes is not above 4.74 mL/min/kg; the intrinsic clearance, rat liver microsomes amounted to 11.4 mL/min/kg.

Consider `COc1ccc(C(=O)Cn2c(=O)n(-c3ccccc3F)c3nc(C)nc(C(N)=O)c32)cc1`, for which the MDR1-MDCK efflux ratio stood at 1.46; the intrinsic clearance, human liver microsomes was not above 4.74 mL/min/kg; the intrinsic clearance, rat liver microsomes was determined as 76 mL/min/kg; the aqueous solubility is 3.69 µg/mL (≈ 8.47 µM).

On to `Clc1ccc(C2(c3ccc(-c4cn[nH]c4)cc3)CCNCC2)cc1`, for which the MDR1-MDCK efflux ratio worked out at 99; the intrinsic clearance, human liver microsomes is not above 4.74 mL/min/kg; the intrinsic clearance, rat liver microsomes is not above 10.7 mL/min/kg; the aqueous solubility came to 18.5 µg/mL (≈ 54.8 µM).

The compound `Cc1ccc(NC(=O)c2cc(F)cc(F)c2)nc1` had an intrinsic clearance, human liver microsomes of 276 mL/min/kg; an intrinsic clearance, rat liver microsomes of 285 mL/min/kg; an aqueous solubility of 7.52 µg/mL (≈ 30.3 µM).
